Active and inactive are the calls of the source. No rule for the calls is given here.
Target: glucose-6-phosphate dehydrogenase-6-phosphogluconolactonase (Plasmodium falciparum 3D7)
Experiment: PfG6PD enzyme inhibitors, direct NADPH readout, dose response, orthogonal assay, biochemical, end-point NADPH detection (AID 540252)
Conditions: purified PfG6PD enzyme

SMILES	IC50
Cc1ccc(-c2nc(N)s[n+]2-c2ccccc2)cc1	60.3 µM
N#Cc1ccc(Oc2cccc3cccnc23)c([N+](=O)[O-])c1	> 80 µM (inactive)
c1ccc(-c2cn3c(n2)CCc2ccc4cccnc4c2-3)cc1	> 80 µM (inactive)
CCn1c(SCc2nc3scc(-c4ccccc4)c3c(=O)[nH]2)nnc1-c1cccs1	> 80 µM (inactive)
COc1ccc(/C=C/c2nc3ccccc3n2Cc2ccc(OC)c(OC)c2)cc1	> 80 µM (inactive)
COc1cccc2nc3cc(C)c(C)cc3nc12	> 80 µM (inactive)
O=C(Nc1nnc(S(=O)(=O)N2CCOCC2)s1)c1ccc(F)cc1	> 80 µM (inactive)
CCC(C)N(CCNC(=O)c1ccc2c(c1)NC(=O)c1ccccc1S2)C1CCCCC1 (centres undefined)	6.49 µM
Cc1cc(N=NC(=O)c2ccccc2O)c2ccccc2c1O	> 80 µM (inactive)
CC(C)c1nnc(NC(=O)c2cccc(-n3cnnn3)c2)s1	> 80 µM (inactive)
CCn1c2ccccc2c2nc3cc(S(=O)(=O)N4CCOCC4)ccc3nc21	> 80 µM (inactive)
CN1CCN(C(=S)C(=O)Nc2ccc(Br)cc2)CC1	67.9 µM
COc1cc(NCc2ccccc2)c2ncn(Cc3ccccc3)c2c1	> 80 µM (inactive)
c1ccc(OCc2nnc3n2N=C(c2ccccc2)CS3)cc1	> 80 µM (inactive)
O=C(Nc1ccccc1C(=O)N/N=C/c1ccco1)c1ccccc1Cl	> 80 µM (inactive)
Cc1c(/C=C/C(=O)c2ccc(Cl)s2)cnn1C	> 80 µM (inactive)
O=C(CCSCCC(=O)NN=Cc1ccccc1)NN=Cc1ccccc1	> 80 µM (inactive)
Cc1ccc(Nc2cc(C)c(O)c(C)c2)cc1	> 80 µM (inactive)
Cc1cc(C)nc(/N=C(\N)Nc2ccccc2-c2ccccc2)n1	> 80 µM (inactive)
O=C(CNC(=O)c1ccco1)OCC(=O)c1ccc([N+](=O)[O-])cc1	48.4 µM
CCN1CCN(c2nc(C)nc3c2sc(=S)n3C)CC1	43.7 µM
COc1cc(NCc2ccccc2)c2ncn(C(C)C)c2c1	> 80 µM (inactive)
O=c1[nH]c(NCCO)c(N=Cc2ccccc2)c(=O)[nH]1	> 80 µM (inactive)
C=C1C(=O)O[C@@H]2C[C@@H](C)[C@@H]3C=CC(=O)[C@@]3(C)[C@@H](OC(=O)CC(=O)O[C@H]3[C@@H]4C(=C)C(=O)O[C@@H]4C[C@@H](C)[C@@H]4C=CC(=O)[C@]43C)[C@H]12	> 80 µM (inactive)
COc1cc(N)c2ncsc2c1	> 80 µM (inactive)

SMILES	IC50
CCC(C)(C)c1nnc(NC(=O)C2CCN(C(=O)c3ccco3)CC2)s1	> 80 µM (inactive)
Cn1c(=O)c2[nH]c(-c3ccccc3)c(O)c2n(C)c1=O	> 80 µM (inactive)
Cc1cc(SCC(=O)N/N=C/c2ccco2)nc2ccccc12	> 80 µM (inactive)
COc1cc(N=c2ssnc2Cl)cc(OC)c1	72.6 µM
O=C(COc1ccccc1F)OCC(=O)c1ccc([N+](=O)[O-])cc1	44.6 µM
Cc1ccc(C(=O)NCC(=O)NCC(=O)OCC(=O)c2ccc([N+](=O)[O-])cc2)cc1	48.4 µM
C=CCc1ccccc1OCC(=O)N/N=C/c1ccccc1OCC	> 80 µM (inactive)
CN(C)c1ccc(C=c2c3ccccc3n3c2c2ccccc2[n+]3C)cc1	> 80 µM (inactive)
Cc1cccc(C(=O)Nc2sc3c(c2C(=O)O)CCCC3)c1	> 80 µM (inactive)
CCCCC1C(=O)N(c2ccccc2)N(c2ccc(O)cc2)C1=O (centres undefined)	> 80 µM (inactive)
Cc1cc(C)c2c(=O)n(CC(=O)Nc3cccc(F)c3)sc2n1	> 80 µM (inactive)
C=CCOc1c(Cl)cc(CNc2ccc3[nH]c(=O)[nH]c3c2)cc1OC	> 80 µM (inactive)
CN=c1scc(C)n1/N=C/c1ccc(O)c(O)c1O	> 80 µM (inactive)
CNCc1ccccc1Sc1cc(O)ccc1O	> 80 µM (inactive)
O=S(=O)(Nc1cc(Sc2ncn[nH]2)c(O)c2ccccc12)c1ccccc1	> 80 µM (inactive)
O=S(=O)(Nc1cccc2cccnc12)c1ccccc1	> 80 µM (inactive)
Cc1cc(C)c2c(=O)n(CC(=O)NC3CCCC3)sc2n1	> 80 µM (inactive)
COC(=O)C1=C(C(=O)OC)SC2(S1)C(C(=O)OC)=C(C(=O)OC)Sc1c2ssc1=O	> 80 µM (inactive)
Oc1ccc(/C=N/N=C(c2ccccc2)c2ccccc2)c(O)c1O	67.4 µM
O=C(CNC(=O)c1cccs1)OCC(=O)c1ccc([N+](=O)[O-])cc1	62.5 µM
Cc1cc(C)c2c(=O)n(CC(=O)Nc3ccc(Cl)cc3)sc2n1	> 80 µM (inactive)
CCn1c(=O)n(CC)c2cc(N3CCCC3)c(NC(=O)c3cccc(C)c3)cc21	> 80 µM (inactive)
O=C(CCC(=O)OCC(=O)c1ccc([N+](=O)[O-])cc1)Nc1ccccc1Cl	53 µM
CS(=O)(=O)c1ccc(N)c(SSc2cc(S(C)(=O)=O)ccc2N)c1	17.6 µM
COC(=O)c1cc2c(n1S(=O)(=O)c1ccc(C)cc1)C(=O)C(=O)c1[nH]cc(C(=O)OCc3ccccc3)c1-2	> 80 µM (inactive)

SMILES	IC50
c1ccc(-c2nc(N3CCOCC3)s[n+]2-c2ccccc2)cc1	> 80 µM (inactive)
COc1cc(/C=N/Nc2nncn2N)ccc1OCc1c(C)no[n+]1[O-]	> 80 µM (inactive)
COc1cc(Sc2ccc(C)cc2)c(OC)cc1N	> 80 µM (inactive)
Cc1ccnc(-n2sc3ccccc3c2=O)n1	> 80 µM (inactive)
Cc1nnc(SCC(=O)c2cc(C)n(-c3ccc4c(c3)OCO4)c2C)s1	> 80 µM (inactive)
Cc1ccc(S(=O)c2ccc([N+](=O)[O-])c3nonc23)cc1 (centres undefined)	60 µM
CC1(C)CN(c2ccccc2)N(C(=O)c2ccc(C#N)cc2)C1=O	> 80 µM (inactive)
O=[N+]([O-])c1ccc(Sc2cccc3cccnc23)c2cccnc12	> 80 µM (inactive)
COc1ccc(C(=O)/C=C2\Sc3ccccc3N2C)cc1	> 80 µM (inactive)
O=C(CCC(=O)Nc1ccccc1Cl)N/N=C/c1ccccc1	> 80 µM (inactive)
COc1cc(N=c2ssnc2Cl)cc(OC)c1OC	54 µM
COc1ccc(NC(C)C(=O)N/N=C/c2cc(Br)ccc2OC)cc1 (centres undefined)	> 80 µM (inactive)
CCN(CC)CCn1c2ccccc2c(=O)c2c(O)ccc(O)c21	> 80 µM (inactive)
Clc1ccc2nc(-c3ccc(Br)s3)cn2c1	> 80 µM (inactive)
CCCCOc1ccc(Cc2n[nH]c(=S)n2N)cc1	> 80 µM (inactive)
Nn1c(SCC(=O)Nc2cccnc2Cl)nnc1-c1ccccc1	> 80 µM (inactive)
COc1cc(/C=C/C(=O)c2ccc([N+](=O)[O-])o2)ccc1O	> 80 µM (inactive)
NCCc1cc(O)c(O)cc1O	> 80 µM (inactive)
Cc1c(Cl)c([N+](=O)[O-])nn1Cc1ccc(C(=O)N/N=C\c2cccc(Br)c2)o1	> 80 µM (inactive)
C[C@]12CC[C@@H]3c4ccc(O)c(O)c4CC[C@H]3[C@@H]1CC[C@@H]2O	22.3 µM
Cc1ccc2nc3sc(C(=O)N4CCOCC4)c(N)c3cc2c1	> 80 µM (inactive)
Cc1nc(COC(=O)c2cc(O)c3ccccc3c2O)cs1	> 80 µM (inactive)
CCOc1cc(NCc2ccccc2)c2ncn(C(C)C)c2c1	> 80 µM (inactive)
Cc1nnc(N/N=C\c2ccc(-c3cccc(C(=O)O)c3)o2)n1N	> 80 µM (inactive)

— PubChem BioAssay AID540252 (Sanford-Burnham Center for Chemical Genomics, 2011)
